According to ChEMBL document CHEMBL3885881, “DrugMatrix”:

Species on record: Rattus norvegicus
Assay: DrugMatrix - Regimen: Daily Repeat
Type: toxicity, organism-based, Sprague-Dawley
Set-up: regimen Daily Repeat, gender Male, age 6-8 weeks
Conditions: in vivo, ip, 0 mg/kg, route intraperitoneal, dose level Control, vehicle 100 % SALINE; for ABSOLUTE BASOPHIL / ABSOLUTE EOSINOPHIL / ABSOLUTE LYMPHOCYTE / ABSOLUTE MONOCYTE / ABSOLUTE SEGMENTED NEUTROPHIL / BASOPHIL / EOSINOPHIL / ERYTHROCYTE COUNT / HEMATOCRIT / HEMOGLOBIN / LEUKOCYTE COUNT / LYMPHOCYTE / MEAN CORPUSCULAR HEMOGLOBIN / MEAN CORPUSCULAR HEMOGLOBIN CONCENTRATION / MEAN CORPUSCULAR VOLUME / MONOCYTE / NEUTROPHIL / NUCLEATED RED BLOOD CELLS / PLATELET COUNT: tissue Blood; for ALANINE AMINOTRANSFERASE / ALKALINE PHOSPHATASE / ASPARTATE AMINOTRANSFERASE / BLOOD UREA NITROGEN / CARBON DIOXIDE / CHLORIDE / CHOLESTEROL / CREATININE / GLUCOSE / LACTATE DEHYDROGENASE / LIPASE / PHOSPHORUS / POTASSIUM / SODIUM / TOTAL BILIRUBIN / TOTAL PROTEIN / URIC ACID: tissue Plasma

SMILES: CC[C@H]1CN2CCc3cc(OC)c(OC)cc3[C@@H]2C[C@@H]1C[C@H]1NCCc2cc(OC)c(OC)cc21 [EMETINE]
- ABSOLUTE BASOPHIL (72 h, time 3 day): 0 CELLS/uL
- ABSOLUTE EOSINOPHIL (72 h, time 3 day): 109.67 CELLS/uL
- ABSOLUTE LYMPHOCYTE (72 h, time 3 day): 11168.33 CELLS/uL
- ABSOLUTE MONOCYTE (72 h, time 3 day): 226.17 CELLS/uL
- ABSOLUTE SEGMENTED NEUTROPHIL (72 h, time 3 day): 695.83 CELLS/uL
- BASOPHIL (72 h, time 3 day): 0%
- EOSINOPHIL (72 h, time 3 day): 0.83%
- ERYTHROCYTE COUNT (72 h, time 3 day): 6.2 x10E6/uL
- HEMATOCRIT (72 h, time 3 day): 37.68%
- HEMOGLOBIN (72 h, time 3 day): 13.67 G/DL
- LEUKOCYTE COUNT (72 h, time 3 day): 12.2 x10E3/uL
- LYMPHOCYTE (72 h, time 3 day): 91.83%
- MEAN CORPUSCULAR HEMOGLOBIN (72 h, time 3 day): 22.08 pg
- MEAN CORPUSCULAR HEMOGLOBIN CONCENTRATION (72 h, time 3 day): 36.3 G/DL
- MEAN CORPUSCULAR VOLUME (72 h, time 3 day): 60.77 fL
- MONOCYTE (72 h, time 3 day): 1.83%
- NEUTROPHIL (72 h, time 3 day): 5.5%
- NUCLEATED RED BLOOD CELLS (72 h, time 3 day): 0 /100WBC
- PLATELET COUNT (72 h, time 3 day): 755.67 x10E3/uL
- ALANINE AMINOTRANSFERASE (72 h, time 3 day): 60.83 u/L
- ALKALINE PHOSPHATASE (72 h, time 3 day): 392.5 u/L
- ASPARTATE AMINOTRANSFERASE (72 h, time 3 day): 97 u/L
- BLOOD UREA NITROGEN (72 h, time 3 day): 16.5 mg/dL
- CARBON DIOXIDE (72 h, time 3 day): 29.83 mmol/L
- CHLORIDE (72 h, time 3 day): 101.83 MEQ/L
- CHOLESTEROL (72 h, time 3 day): 72.5 mg/dL
- CREATININE (72 h, time 3 day): 0.28 mg/dL
- GLUCOSE (72 h, time 3 day): 195.33 mg/dL
- LACTATE DEHYDROGENASE (72 h, time 3 day): 240.33 u/L
- LIPASE (72 h, time 3 day): 9.67 u/L
- PHOSPHORUS (72 h, time 3 day): 12.47 mg/dL
- POTASSIUM (72 h, time 3 day): 6.15 MEQ/L
- SODIUM (72 h, time 3 day): 145.38 MEQ/L
- TOTAL BILIRUBIN (72 h, time 3 day): 0.17 mg/dL
- TOTAL PROTEIN (72 h, time 3 day): 6.7 G/DL
- URIC ACID (72 h, time 3 day): 2.42 mg/dL
- ABSOLUTE BASOPHIL (120 h, time 5 day): 0 CELLS/uL
- ABSOLUTE EOSINOPHIL (120 h, time 5 day): 50 CELLS/uL
- ABSOLUTE LYMPHOCYTE (120 h, time 5 day): 12777 CELLS/uL
- ABSOLUTE MONOCYTE (120 h, time 5 day): 280.67 CELLS/uL
- ABSOLUTE SEGMENTED NEUTROPHIL (120 h, time 5 day): 875.67 CELLS/uL
- BASOPHIL (120 h, time 5 day): 0%
- EOSINOPHIL (120 h, time 5 day): 0.5%
- ERYTHROCYTE COUNT (120 h, time 5 day): 6.42 x10E6/uL
- HEMATOCRIT (120 h, time 5 day): 39.13%
- HEMOGLOBIN (120 h, time 5 day): 14.17 G/DL
- LEUKOCYTE COUNT (120 h, time 5 day): 13.98 x10E3/uL
- LYMPHOCYTE (120 h, time 5 day): 90.83%
- MEAN CORPUSCULAR HEMOGLOBIN (120 h, time 5 day): 22.1 pg
- MEAN CORPUSCULAR HEMOGLOBIN CONCENTRATION (120 h, time 5 day): 36.2 G/DL
- MEAN CORPUSCULAR VOLUME (120 h, time 5 day): 61.07 fL
- MONOCYTE (120 h, time 5 day): 2%
- NEUTROPHIL (120 h, time 5 day): 6.67%
- NUCLEATED RED BLOOD CELLS (120 h, time 5 day): 0 /100WBC
- PLATELET COUNT (120 h, time 5 day): 838.67 x10E3/uL
- ALANINE AMINOTRANSFERASE (120 h, time 5 day): 56.5 u/L
- ALKALINE PHOSPHATASE (120 h, time 5 day): 316.5 u/L
- ASPARTATE AMINOTRANSFERASE (120 h, time 5 day): 131 u/L
- BLOOD UREA NITROGEN (120 h, time 5 day): 14.33 mg/dL
- CARBON DIOXIDE (120 h, time 5 day): 29.83 mmol/L
- CHLORIDE (120 h, time 5 day): 100.5 MEQ/L
- CHOLESTEROL (120 h, time 5 day): 65.83 mg/dL
- CREATININE (120 h, time 5 day): 0.23 mg/dL
- GLUCOSE (120 h, time 5 day): 268.83 mg/dL
- LACTATE DEHYDROGENASE (120 h, time 5 day): 343 u/L
- LIPASE (120 h, time 5 day): 9.33 u/L
- PHOSPHORUS (120 h, time 5 day): 13.95 mg/dL
- POTASSIUM (120 h, time 5 day): 5.37 MEQ/L
- SODIUM (120 h, time 5 day): 146.53 MEQ/L
- TOTAL BILIRUBIN (120 h, time 5 day): 0.12 mg/dL
- TOTAL PROTEIN (120 h, time 5 day): 6.37 G/DL
- URIC ACID (120 h, time 5 day): 1.97 mg/dL
- ABSOLUTE BASOPHIL ([…], time 14 day): 0 CELLS/uL
- ABSOLUTE EOSINOPHIL ([…], time 14 day): 111.67 CELLS/uL
- ABSOLUTE LYMPHOCYTE ([…], time 14 day): 12370.33 CELLS/uL
- ABSOLUTE MONOCYTE ([…], time 14 day): 653.33 CELLS/uL
- ABSOLUTE SEGMENTED NEUTROPHIL ([…], time 14 day): 1414.67 CELLS/uL
- BASOPHIL ([…], time 14 day): 0%
- EOSINOPHIL ([…], time 14 day): 0.67%
- ERYTHROCYTE COUNT ([…], time 14 day): 6.03 x10E6/uL
- HEMATOCRIT ([…], time 14 day): 36.65%
- HEMOGLOBIN ([…], time 14 day): 13.4 G/DL
- LEUKOCYTE COUNT ([…], time 14 day): 14.55 x10E3/uL
- LYMPHOCYTE ([…], time 14 day): 85.33%
- MEAN CORPUSCULAR HEMOGLOBIN ([…], time 14 day): 22.27 pg
- MEAN CORPUSCULAR HEMOGLOBIN CONCENTRATION ([…], time 14 day): 36.58 G/DL
- MEAN CORPUSCULAR VOLUME ([…], time 14 day): 60.85 fL
- MONOCYTE ([…], time 14 day): 4.5%
- NEUTROPHIL ([…], time 14 day): 9.5%
- NUCLEATED RED BLOOD CELLS ([…], time 14 day): 0 /100WBC
- PLATELET COUNT ([…], time 14 day): 942 x10E3/uL
- ALANINE AMINOTRANSFERASE ([…], time 14 day): 53.33 u/L
- ALKALINE PHOSPHATASE ([…], time 14 day): 293.67 u/L
- ASPARTATE AMINOTRANSFERASE ([…], time 14 day): 96.83 u/L
- BLOOD UREA NITROGEN ([…], time 14 day): 15.5 mg/dL
- CARBON DIOXIDE ([…], time 14 day): 32.17 mmol/L
- CHLORIDE ([…], time 14 day): 101.33 MEQ/L
- CHOLESTEROL ([…], time 14 day): 64 mg/dL
- CREATININE ([…], time 14 day): 0.25 mg/dL
- GLUCOSE ([…], time 14 day): 178.67 mg/dL
- LACTATE DEHYDROGENASE ([…], time 14 day): 179.5 u/L
- LIPASE ([…], time 14 day): 9.17 u/L
- PHOSPHORUS ([…], time 14 day): 10.88 mg/dL
- POTASSIUM ([…], time 14 day): 5.91 MEQ/L
- SODIUM ([…], time 14 day): 145.68 MEQ/L
- TOTAL BILIRUBIN ([…], time 14 day): 0.2 mg/dL
- TOTAL PROTEIN ([…], time 14 day): 6.38 G/DL
- URIC ACID ([…], time 14 day): 1.12 mg/dL
